US9302999B2, “Substituted triazoles as herbicides” (E. I. DU PONT DE NEMOURS AND COMPANY, priority 2012, dated 2016)

Legend:
Type in all cases: in vivo
[1] = system: crabgrass, Brazil (Brazilian crabgrass, Digitaria horizontalis); assay: Test F pre-/postemergence: crabgrass, Brazil
Excerpt: (§1) Seeds of plant species selected from corn (Zea mays), soybean (Glycine max), velvetleaf (Abutilon theophrasti), lambsquarters (Chenopodium album), poinsettia, wild (wild poinsettia, Euphorbia heterophylla), pigweed, palmer (palmer pigweed, Amaranthus palmeri), waterhemp (common waterhemp, Amaranthus rudis), surinam grass (Brachiaria decumbens), crabgrass, Brazil (Brazilian crabgrass, Digitaria horizontalis), panicum, fall (fall panicum Panicum dichotomiflorum), crabgrass, large (large crabgrass, Digitaria sanguinalis), foxtail, giant (giant foxtail, Setaria faberii), foxtail, green (green foxtail Setaria viridis), goosegrass (Eleusine indica), ragweed (common ragweed, Ambrosia elatior), barnyardgrass (Echinochloa crus-galli), sandbur (southern sandbur, Cenchrus echinatus), arrowleaf sida (Sida rhombifolia), ryegrass, Italian (Italian ryegrass, Lolium multiflorum), dayflower, VA (Virginia (VA) dayflower, Commelina virginica), field bindweed (Convolvulus arvensis), cocklebur (common cocklebur, Xanthium strumarium), morningglory (Ipomoea coccinea), nightshade (eastern black nightshade, Solanum ptycanthum), kochia (Kochia scoparia), nutsedge, yellow (yellow nutsedge, Cyperus esculentus), johnsongrass (Sorghum halepense), smartweed (ladysthumb smartweed, Polygonum persicaria), and beggarticks (hairy beggarticks, Bidens pilosa), were planted into a silt loam soil and treated preemergence with test chemicals formulated in a non-phytotoxic solvent mixture which included a surfactant. At the same time, plants selected from these crop and weed species and also pigweed (Amaranthus retroflexus), waterhemp_RES1 (ALS/Triazine resistant common waterhemp, Amaranthus rudis) and waterhemp_RES2 (ALS/HPPD resistant common waterhemp, Amaranthus rudis) were planted in pots containing a planting medium comprising spaghnum peat moss, vermiculite, wetting agent and starter nutrients treated with postemergence applications of some of the test chemicals formulated in the same manner. Plants ranged in height from 2 to 18 cm for postemergence treatments (1- to 4-leaf stage).
(§2) Treated plants and controls were maintained in a greenhouse for 14 to 21 days, after which time all species were compared to controls and visually evaluated. Plant response ratings, summarized in Table E, are based on a scale of 0 to 100 where 0 is no effect and 100 is complete control. A dash (-) response means no test result.

[2] = system: johnsongrass (Sorghum halepense); assay: Test F pre-/postemergence: johnsongrass; conditions: Preemergence
Procedure, shortened: (§3)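 Preemergence treatment of seeds sown in silt loam soil, and postemergence treatment of plants 2–18 cm tall (1- to 4-leaf stage), with compounds in non-phytotoxic solvent plus surfactant. Greenhouse 14–21 days, then visual rating versus controls on 0–100 scale (100 = complete control).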

[3] = system: morningglory (Ipomoea coccinea); assay: Test F pre-/postemergence: morningglory; conditions: Preemergence
Procedure, shortened: as §3

[4] = system: goosegrass (Eleusine indica); assay: Test F pre-/postemergence: goosegrass; conditions: Preemergence
Procedure, shortened: as §3

[5] = system: nutsedge, yellow (yellow nutsedge, Cyperus esculentus); assay: Test F pre-/postemergence: nutsedge, yellow; conditions: Preemergence
Excerpt: as §1, §2

[6] = system: crabgrass, large (large crabgrass, Digitaria sanguinalis); assay: Test F pre-/postemergence: crabgrass, large; conditions: Preemergence
Excerpt: as §1, §2

[7] = system: Oilseed Rape; assay: Test C preemergence: oilseed rape; conditions: scale 0 (no effect) to 100 (complete control)
[8] = Preemergence, 16 g ai/ha, scale 0 to 100 (0 no effect, 100 complete control)
[9] = Preemergence, 31 g ai/ha, scale 0 to 100 (0 no effect, 100 complete control)
[10] = Preemergence, 62 g ai/ha, scale 0 to 100
[11] = 4 g ai/ha, scale 0 to 100, 0 no effect, 100 complete control
[12] = 8 g ai/ha, scale 0 to 100, 0 no effect, 100 complete control
[13] = 16 g ai/ha, scale 0 to 100 (0 no effect, 100 complete control)
[14] = 31 g ai/ha, scale 0 to 100 (0 no effect, 100 complete control)

In the case of `Cc1nn(-c2ccc(C(F)(F)F)c(F)c2)nc1Cc1ccnc(C(F)(F)F)c1` [Compound 162], the “Plant response rating, Crabgrass, Brazil” value ([1]; Postemergence, 4 g ai/ha, scale 0 to 100) is reported as 15, the “Plant response rating, Crabgrass, Brazil” value ([1]; Postemergence, 8 g ai/ha, scale 0 to 100) is reported as 15 and the “Plant response rating, Crabgrass, Brazil” value ([1]; Postemergence, 16 g ai/ha, scale 0 to 100) is reported as 15. For the same compound, the “Plant response rating, Crabgrass, Brazil” value ([1]; Postemergence, 31 g ai/ha, scale 0 to 100) was 20, the “Plant response rating, Crabgrass, Brazil” value ([1]; Postemergence, 62 g ai/ha, scale 0 to 100) was 30 and the “Plant response rating, Crabgrass, Brazil” value ([1]; Preemergence, 4 g ai/ha, scale 0 to 100, 0 no effect, 100 complete control) was 0. The “Plant response rating, Crabgrass, Brazil” value ([1]; Preemergence, 8 g ai/ha, scale 0 to 100, 0 no effect, 100 complete control) was 100, the “Plant response rating, Crabgrass, Brazil” value [1, 8] was 100 and the “Plant response rating, Crabgrass, Brazil” value [1, 9] was 100. The “Plant response rating, Crabgrass, Brazil” value [1, 10] was 100, the “Plant response rating, Johnsongrass” value [2, 11] was 20 and the “Plant response rating, Johnsongrass” value [2, 12] was 20. The “Plant response rating, Johnsongrass” value [2, 13] was 20, the “Plant response rating, Johnsongrass” value [2, 14] was 20 and the “Plant response rating, Johnsongrass” value ([2]; 62 g ai/ha, scale 0 to 100) was 20. The “Plant response rating, Morningglory” value [3, 11] was 0, the “Plant response rating, Morningglory” value [3, 12] was 0 and the “Plant response rating, Morningglory” value [3, 13] was 20. For the same compound, the “Plant response rating, Morningglory” value [3, 14] was 30, the “Plant response rating, Goosegrass” value [4, 11] was 0 and the “Plant response rating, Goosegrass” value [4, 12] was 0. For the same compound, the “Plant response rating, Goosegrass” value [4, 13] was 95, the “Plant response rating, Goosegrass” value [4, 14] was 100 and the “Plant response rating, Goosegrass” value ([4]; 62 g ai/ha, scale 0 to 100) was 100. For the same compound, the “Plant response rating, Nutsedge, Yellow” value [5, 11] was 0, the “Plant response rating, Nutsedge, Yellow” value [5, 12] was 0 and the “Plant response rating, Nutsedge, Yellow” value [5, 13] was 35. The “Plant response rating, Nutsedge, Yellow” value [5, 14] was 35, the “Plant response rating, Crabgrass, Large” value [6, 12] was 0 and the “Plant response rating, Crabgrass, Large” value [6, 13] was 0. For the same compound, the “Plant response rating, Crabgrass, Large” value [6, 14] was 95 and the “Plant response rating, Crabgrass, Large” value ([6]; 62 g ai/ha, scale 0 to 100) was 100.
For `CCCc1nn(-c2ccc(C(F)(F)F)c(F)c2)nc1Oc1ccnc(C(F)(F)F)c1` [Compound 185], the “Plant response rating, Oilseed Rape” value ([7]; 31 g ai/ha) was 60.
With `CCCc1nn(-c2ccc(F)cc2)nc1Cc1ccnc(C(F)(F)F)c1` [Compound 153] the “Plant response rating, Crabgrass, Brazil” value [1, 8] was 98, the “Plant response rating, Crabgrass, Brazil” value [1, 9] was 100 and the “Plant response rating, Crabgrass, Brazil” value [1, 10] was 100. The “Plant response rating, Crabgrass, Brazil” value ([1]; Preemergence, 125 g ai/ha, scale 0 to 100) was 100, the “Plant response rating, Crabgrass, Brazil” value ([1]; Preemergence, 250 g ai/ha, scale 0 to 100) was 100 and the “Plant response rating, Johnsongrass” value [2, 13] was 0. The “Plant response rating, Johnsongrass” value [2, 14] was 10, the “Plant response rating, Johnsongrass” value ([2]; 62 g ai/ha, scale 0 to 100) was 50 and the “Plant response rating, Johnsongrass” value ([2]; 125 g ai/ha, scale 0 to 100) was 100. The “Plant response rating, Johnsongrass” value ([2]; 250 g ai/ha, scale 0 to 100) was 100, the “Plant response rating, Morningglory” value [3, 13] was 0 and the “Plant response rating, Morningglory” value [3, 14] was 30. For the same compound, the “Plant response rating, Morningglory” value ([3]; 125 g ai/ha, scale 0 to 100) was 65, the “Plant response rating, Morningglory” value ([3]; 250 g ai/ha, scale 0 to 100) was 65 and the “Plant response rating, Goosegrass” value [4, 13] was 80. The “Plant response rating, Goosegrass” value [4, 14] was 95, the “Plant response rating, Goosegrass” value ([4]; 62 g ai/ha, scale 0 to 100) was 98 and the “Plant response rating, Goosegrass” value ([4]; 125 g ai/ha, scale 0 to 100) was 100. The “Plant response rating, Goosegrass” value ([4]; 250 g ai/ha, scale 0 to 100) was 100, the “Plant response rating, Nutsedge, Yellow” value [5, 13] was 0 and the “Plant response rating, Nutsedge, Yellow” value [5, 14] was 0. For the same compound, the “Plant response rating, Nutsedge, Yellow” value ([5]; 125 g ai/ha, scale 0 to 100) was 10, the “Plant response rating, Nutsedge, Yellow” value ([5]; 250 g ai/ha, scale 0 to 100) was 10 and the “Plant response rating, Crabgrass, Large” value [6, 13] was 80. The “Plant response rating, Crabgrass, Large” value [6, 14] was 95, the “Plant response rating, Crabgrass, Large” value ([6]; 62 g ai/ha, scale 0 to 100) was 100 and the “Plant response rating, Crabgrass, Large” value ([6]; 125 g ai/ha, scale 0 to 100) was 100. The “Plant response rating, Crabgrass, Large” value ([6]; 250 g ai/ha, scale 0 to 100) was 100.
In the case of `CCOc1nn(-c2ccc(Br)cc2)nc1Cc1ccnc(C(F)(F)F)c1` [Compound 189], the “Plant response rating, Oilseed Rape” value ([7]; 16 g ai/ha) is reported as 5.
For `CCc1nn(-c2ccc(F)cc2)nc1Oc1ccnc(C(F)(F)F)c1` [Compound 166], the “Plant response rating, Oilseed Rape” value ([7]; 31 g ai/ha) was 50.
